Laboratory results as given in ChEMBL document CHEMBL4011590, “Structure-activity relationship studies on 3,5-dinitrophenyl tetrazoles as antitubercular agents” (Eur J Med Chem, 2017).
Values after ≈ are worked out from the molar mass of the structure shown.

Legend:
[1] = tested on: Mycobacterium tuberculosis; experiment: Antimycobacterial activity against Mycobacterium tuberculosis H37Rv CNCTC My 331/88 after 14 days by micromethod; format: functional; settings: H37Rv CNCTC My 331/88, 336 h
[2] = tested on: Mycobacterium tuberculosis; experiment: Antimycobacterial activity against Mycobacterium tuberculosis H37Rv CNCTC My 331/88 after 21 days by micromethod; format: functional; settings: H37Rv CNCTC My 331/88, 504 h
Mycobacterium avium [3] = experiment: Antimycobacterial activity against Mycobacterium avium CNCTC My 330/80 after 14 days by micromethod; format: functional; settings: CNCTC My 330/80, 336 h
Mycobacterium avium [4] = experiment: Antimycobacterial activity against Mycobacterium avium CNCTC My 330/80 after 21 days by micromethod; format: functional; settings: CNCTC My 330/80, 504 h
Mycobacterium kansasii [5] = experiment: Antimycobacterial activity against Mycobacterium kansasii CNCTC My 235/80 after 7 days by micromethod; format: functional; settings: CNCTC My 235/80, 168 h
Mycobacterium kansasii [6] = experiment: Antimycobacterial activity against Mycobacterium kansasii CNCTC My 235/80 after 14 days by micromethod; format: functional; settings: CNCTC My 235/80, 336 h
Mycobacterium kansasii [7] = experiment: Antimycobacterial activity against Mycobacterium kansasii CNCTC My 235/80 after 21 days by micromethod; format: functional; settings: CNCTC My 235/80, 504 h
Mycobacterium kansasii [8] = experiment: Antimycobacterial activity against Mycobacterium kansasii isolate 6509/96 after 7 days by micromethod; format: functional; settings: isolate 6509/96, 168 h
Mycobacterium kansasii [9] = experiment: Antimycobacterial activity against Mycobacterium kansasii isolate 6509/96 after 14 days by micromethod; format: functional; settings: isolate 6509/96, 336 h
Mycobacterium kansasii [10] = experiment: Antimycobacterial activity against Mycobacterium kansasii isolate 6509/96 after 21 days by micromethod; format: functional; settings: isolate 6509/96, 504 h
CHO-K1 = experiment: Cytotoxicity against CHOK1 cells after 24 hrs by MTT assay; format: cell-based; settings: Cricetulus griseus, CHO-K1, 24 h

O=[N+]([O-])c1cc(-c2nnn(CCCCSc3nnnn3-c3ccc(Cl)c(Cl)c3)n2)cc([N+](=O)[O-])c1
MIC99 [1]: 0.25 µM (≈ 0.134 µg/mL)
MIC99 [2]: 0.25 µM (≈ 0.134 µg/mL)
MIC99 (Mycobacterium avium [3]): 2 µM (≈ 1.07 µg/mL)
MIC99 (Mycobacterium avium [4]): 4 µM (≈ 2.15 µg/mL)
MIC99 (Mycobacterium kansasii [5]): 0.5 µM (≈ 0.269 µg/mL)
MIC99 (Mycobacterium kansasii [6]): 1 µM (≈ 0.537 µg/mL)
MIC99 (Mycobacterium kansasii [7]): 1 µM (≈ 0.537 µg/mL)
MIC99 (Mycobacterium kansasii [8]): 0.5 µM (≈ 0.269 µg/mL)
MIC99 (Mycobacterium kansasii [9]): 1 µM (≈ 0.537 µg/mL)
MIC99 (Mycobacterium kansasii [10]): 1 µM (≈ 0.537 µg/mL)

Cn1nnc(-c2cc([N+](=O)[O-])cc([N+](=O)[O-])c2)n1
MIC99 [1]: 32 µM (≈ 8.01 µg/mL)
MIC99 [2]: 32 µM (≈ 8.01 µg/mL)
MIC99 (Mycobacterium avium [3]): 62.5 µM (≈ 15.6 µg/mL)
MIC99 (Mycobacterium avium [4]): 125 µM (≈ 31.3 µg/mL)
MIC99 (Mycobacterium kansasii [5]): 62.5 µM (≈ 15.6 µg/mL)
MIC99 (Mycobacterium kansasii [6]): 125 µM (≈ 31.3 µg/mL)
MIC99 (Mycobacterium kansasii [7]): 125 µM (≈ 31.3 µg/mL)
MIC99 (Mycobacterium kansasii [8]): 62.5 µM (≈ 15.6 µg/mL)
MIC99 (Mycobacterium kansasii [9]): 62.5 µM (≈ 15.6 µg/mL)
MIC99 (Mycobacterium kansasii [10]): 62.5 µM (≈ 15.6 µg/mL)

O=[N+]([O-])c1cc(-c2nnn(CCCCSc3nnnn3-c3ccc(Br)cc3)n2)cc([N+](=O)[O-])c1
MIC99 [1]: 0.5 µM (≈ 0.274 µg/mL)
MIC99 [2]: 0.5 µM (≈ 0.274 µg/mL)
MIC99 (Mycobacterium avium [3]): 1 µM (≈ 0.547 µg/mL)
MIC99 (Mycobacterium avium [4]): 1 µM (≈ 0.547 µg/mL)
MIC99 (Mycobacterium kansasii [5]): 0.5 µM (≈ 0.274 µg/mL)
MIC99 (Mycobacterium kansasii [6]): 1 µM (≈ 0.547 µg/mL)
MIC99 (Mycobacterium kansasii [7]): 1 µM (≈ 0.547 µg/mL)
MIC99 (Mycobacterium kansasii [8]): 1 µM (≈ 0.547 µg/mL)
MIC99 (Mycobacterium kansasii [9]): 1 µM (≈ 0.547 µg/mL)
MIC99 (Mycobacterium kansasii [10]): 2 µM (≈ 1.09 µg/mL)

O=[N+]([O-])c1cc(-c2nnn(CCCSc3nnnn3-c3ccc(Cl)c(Cl)c3)n2)cc([N+](=O)[O-])c1
MIC99 [1]: 0.25 µM (≈ 0.131 µg/mL)
MIC99 [2]: 0.25 µM (≈ 0.131 µg/mL)
MIC99 (Mycobacterium avium [3]): 4 µM (≈ 2.09 µg/mL)
MIC99 (Mycobacterium avium [4]): 8 µM (≈ 4.19 µg/mL)
MIC99 (Mycobacterium kansasii [5]): 0.25 µM (≈ 0.131 µg/mL)
MIC99 (Mycobacterium kansasii [6]): 0.5 µM (≈ 0.262 µg/mL)
MIC99 (Mycobacterium kansasii [7]): 0.5 µM (≈ 0.262 µg/mL)
MIC99 (Mycobacterium kansasii [8]): 0.25 µM (≈ 0.131 µg/mL)
MIC99 (Mycobacterium kansasii [9]): 0.5 µM (≈ 0.262 µg/mL)
MIC99 (Mycobacterium kansasii [10]): 0.5 µM (≈ 0.262 µg/mL)

O=[N+]([O-])c1cc(-c2nnn(CSc3nnnn3-c3ccc(Br)cc3)n2)cc([N+](=O)[O-])c1
MIC99 [1]: 0.03 µM (≈ 0.0152 µg/mL)
MIC99 [2]: 0.03 µM (≈ 0.0152 µg/mL)
MIC99 (Mycobacterium kansasii [5]): 0.125 µM (≈ 0.0632 µg/mL)
MIC99 (Mycobacterium kansasii [6]): 0.25 µM (≈ 0.126 µg/mL)
MIC99 (Mycobacterium kansasii [7]): 0.5 µM (≈ 0.253 µg/mL)
MIC99 (Mycobacterium kansasii [8]): 0.06 µM (≈ 0.0303 µg/mL)
MIC99 (Mycobacterium kansasii [9]): 0.125 µM (≈ 0.0632 µg/mL)
MIC99 (Mycobacterium kansasii [10]): 0.25 µM (≈ 0.126 µg/mL)
IC50 (CHO-K1): 29 µM

COc1ccc(-n2nnnc2SCn2nnc(-c3cc([N+](=O)[O-])cc([N+](=O)[O-])c3)n2)cc1
MIC99 [1]: 0.25 µM (≈ 0.114 µg/mL)
MIC99 [2]: 0.5 µM (≈ 0.228 µg/mL)
MIC99 (Mycobacterium avium [3]): 1 µM (≈ 0.456 µg/mL)
MIC99 (Mycobacterium avium [4]): 1 µM (≈ 0.456 µg/mL)
MIC99 (Mycobacterium kansasii [5]): 0.5 µM (≈ 0.228 µg/mL)
MIC99 (Mycobacterium kansasii [6]): 1 µM (≈ 0.456 µg/mL)
MIC99 (Mycobacterium kansasii [7]): 2 µM (≈ 0.913 µg/mL)
MIC99 (Mycobacterium kansasii [8]): 0.25 µM (≈ 0.114 µg/mL)
MIC99 (Mycobacterium kansasii [9]): 0.5 µM (≈ 0.228 µg/mL)
MIC99 (Mycobacterium kansasii [10]): 1 µM (≈ 0.456 µg/mL)

O=[N+]([O-])c1cc(-c2nnn(CCSc3nnnn3-c3ccc(Br)cc3)n2)cc([N+](=O)[O-])c1
MIC99 [1]: 0.5 µM (≈ 0.26 µg/mL)
MIC99 [2]: 0.5 µM (≈ 0.26 µg/mL)
MIC99 (Mycobacterium avium [3]): 2 µM (≈ 1.04 µg/mL)
MIC99 (Mycobacterium avium [4]): 2 µM (≈ 1.04 µg/mL)
MIC99 (Mycobacterium kansasii [5]): 0.5 µM (≈ 0.26 µg/mL)
MIC99 (Mycobacterium kansasii [6]): 1 µM (≈ 0.519 µg/mL)
MIC99 (Mycobacterium kansasii [7]): 1 µM (≈ 0.519 µg/mL)
MIC99 (Mycobacterium kansasii [8]): 1 µM (≈ 0.519 µg/mL)
MIC99 (Mycobacterium kansasii [9]): 1 µM (≈ 0.519 µg/mL)
MIC99 (Mycobacterium kansasii [10]): 1 µM (≈ 0.519 µg/mL)

O=[N+]([O-])c1cc(Sc2nnnn2-c2ccccc2)cc([N+](=O)[O-])c1
MIC99 [1]: 2 µM (≈ 0.689 µg/mL)
MIC99 [2]: 4 µM (≈ 1.38 µg/mL)
MIC99 (Mycobacterium avium [3]): 16 µM (≈ 5.51 µg/mL)
MIC99 (Mycobacterium avium [4]): 16 µM (≈ 5.51 µg/mL)
MIC99 (Mycobacterium kansasii [5]): 8 µM (≈ 2.75 µg/mL)
MIC99 (Mycobacterium kansasii [6]): 8 µM (≈ 2.75 µg/mL)
MIC99 (Mycobacterium kansasii [7]): 16 µM (≈ 5.51 µg/mL)
MIC99 (Mycobacterium kansasii [8]): 4 µM (≈ 1.38 µg/mL)
MIC99 (Mycobacterium kansasii [9]): 8 µM (≈ 2.75 µg/mL)
MIC99 (Mycobacterium kansasii [10]): 8 µM (≈ 2.75 µg/mL)

CCCn1nnc(-c2cc([N+](=O)[O-])cc([N+](=O)[O-])c2)n1
MIC99 [1]: 8 µM (≈ 2.23 µg/mL)
MIC99 [2]: 16 µM (≈ 4.45 µg/mL)
MIC99 (Mycobacterium avium [3]): 32 µM (≈ 8.9 µg/mL)
MIC99 (Mycobacterium avium [4]): 62.5 µM (≈ 17.4 µg/mL)
MIC99 (Mycobacterium kansasii [5]): 16 µM (≈ 4.45 µg/mL)
MIC99 (Mycobacterium kansasii [6]): 32 µM (≈ 8.9 µg/mL)
MIC99 (Mycobacterium kansasii [7]): 32 µM (≈ 8.9 µg/mL)
MIC99 (Mycobacterium kansasii [8]): 16 µM (≈ 4.45 µg/mL)
MIC99 (Mycobacterium kansasii [9]): 32 µM (≈ 8.9 µg/mL)
MIC99 (Mycobacterium kansasii [10]): 32 µM (≈ 8.9 µg/mL)

O=[N+]([O-])c1cc(-c2nnn(Cc3c(F)cccc3Cl)n2)cc([N+](=O)[O-])c1
MIC99 [1]: 0.5 µM (≈ 0.189 µg/mL)
MIC99 [2]: 0.5 µM (≈ 0.189 µg/mL)
MIC99 (Mycobacterium avium [3]): 4 µM (≈ 1.51 µg/mL)
MIC99 (Mycobacterium avium [4]): 8 µM (≈ 3.03 µg/mL)
MIC99 (Mycobacterium kansasii [5]): 0.5 µM (≈ 0.189 µg/mL)
MIC99 (Mycobacterium kansasii [6]): 1 µM (≈ 0.379 µg/mL)
MIC99 (Mycobacterium kansasii [7]): 1 µM (≈ 0.379 µg/mL)
MIC99 (Mycobacterium kansasii [8]): 0.5 µM (≈ 0.189 µg/mL)
MIC99 (Mycobacterium kansasii [9]): 1 µM (≈ 0.379 µg/mL)
MIC99 (Mycobacterium kansasii [10]): 1 µM (≈ 0.379 µg/mL)

O=[N+]([O-])c1cc(-c2nnn(Cc3ccccc3)n2)cc([N+](=O)[O-])c1
MIC99 [1]: 0.5 µM (≈ 0.163 µg/mL)
MIC99 [2]: 1 µM (≈ 0.326 µg/mL)
MIC99 (Mycobacterium avium [3]): 8 µM (≈ 2.61 µg/mL)
MIC99 (Mycobacterium avium [4]): 8 µM (≈ 2.61 µg/mL)
MIC99 (Mycobacterium kansasii [5]): 1 µM (≈ 0.326 µg/mL)
MIC99 (Mycobacterium kansasii [6]): 2 µM (≈ 0.653 µg/mL)
MIC99 (Mycobacterium kansasii [7]): 2 µM (≈ 0.653 µg/mL)
MIC99 (Mycobacterium kansasii [8]): 1 µM (≈ 0.326 µg/mL)
MIC99 (Mycobacterium kansasii [9]): 2 µM (≈ 0.653 µg/mL)
MIC99 (Mycobacterium kansasii [10]): 2 µM (≈ 0.653 µg/mL)
IC50 (CHO-K1): 150 µM

NNC(=O)c1ccncc1 [ISONIAZID]
MIC99 (Mycobacterium avium [3]): > 250 µM
MIC99 (Mycobacterium kansasii [6]): > 250 µM
MIC99 (Mycobacterium kansasii [8]): 4 µM (≈ 0.549 µg/mL)
MIC99 (Mycobacterium kansasii [9]): 4 µM (≈ 0.549 µg/mL)
MIC99 (Mycobacterium kansasii [10]): 4 µM (≈ 0.549 µg/mL)

O=[N+]([O-])c1cc(-c2nnn(CSc3nnnn3C3CCCCC3)n2)cc([N+](=O)[O-])c1
MIC99 [1]: 0.03 µM (≈ 0.013 µg/mL)
MIC99 [2]: 0.03 µM (≈ 0.013 µg/mL)
MIC99 (Mycobacterium avium [3]): 8 µM (≈ 3.46 µg/mL)
MIC99 (Mycobacterium avium [4]): 16 µM (≈ 6.92 µg/mL)
MIC99 (Mycobacterium kansasii [5]): 0.06 µM (≈ 0.0259 µg/mL)
MIC99 (Mycobacterium kansasii [6]): 0.06 µM (≈ 0.0259 µg/mL)
MIC99 (Mycobacterium kansasii [7]): 0.06 µM (≈ 0.0259 µg/mL)
MIC99 (Mycobacterium kansasii [8]): 0.03 µM (≈ 0.013 µg/mL)
MIC99 (Mycobacterium kansasii [9]): 0.03 µM (≈ 0.013 µg/mL)
MIC99 (Mycobacterium kansasii [10]): 0.03 µM (≈ 0.013 µg/mL)
IC50 (CHO-K1): 140 µM

O=[N+]([O-])c1cc(Sc2nnnn2Cc2ccccc2)cc([N+](=O)[O-])c1
MIC99 [1]: 1 µM (≈ 0.358 µg/mL)
MIC99 [2]: 2 µM (≈ 0.717 µg/mL)
MIC99 (Mycobacterium avium [3]): 32 µM (≈ 11.5 µg/mL)
MIC99 (Mycobacterium avium [4]): 62.5 µM (≈ 22.4 µg/mL)
MIC99 (Mycobacterium kansasii [5]): 8 µM (≈ 2.87 µg/mL)
MIC99 (Mycobacterium kansasii [6]): 8 µM (≈ 2.87 µg/mL)
MIC99 (Mycobacterium kansasii [7]): 16 µM (≈ 5.73 µg/mL)
MIC99 (Mycobacterium kansasii [8]): 2 µM (≈ 0.717 µg/mL)
MIC99 (Mycobacterium kansasii [9]): 4 µM (≈ 1.43 µg/mL)
MIC99 (Mycobacterium kansasii [10]): 4 µM (≈ 1.43 µg/mL)
IC50 (CHO-K1): 127 µM
